# According to PubChem BioAssay (NCI):
# Several values for one entry are separate records, joined by “and”; a condition that tells them apart may be missing. Equal entries are not always repeated.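 Results reflect a 48-hour exposure of cells in 96-well plates to compound at five concentrations. Abbreviation: GI50, concentration required for 50% inhibition of growth. TGI is the concentration that stops growth completely.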
# Key:
# Assay in all cases: DTP human tumour cell line panel, 48 h
# MDA-MB-435 = test system: MDA-MB-435
# SK-MEL-2 melanoma = test system: SK-MEL-2 melanoma
# HCT-116 colon = test system: HCT-116 colon
# NCI-H522 lung = test system: NCI-H522 lung
# SW-620 colon = test system: SW-620 colon
# SK-MEL-28 melanoma = test system: SK-MEL-28 melanoma
# CAKI-1 renal = test system: CAKI-1 renal
# MOLT-4 leukemia = test system: MOLT-4 leukemia
Compound,GI50 (MDA-MB-435),TGI (MDA-MB-435),GI50 (SK-MEL-2 melanoma),TGI (SK-MEL-2 melanoma),GI50 (HCT-116 colon),TGI (HCT-116 colon),TGI (NCI-H522 lung),GI50 (SW-620 colon),TGI (SW-620 colon),GI50 (SK-MEL-28 melanoma),TGI (SK-MEL-28 melanoma),GI50 (CAKI-1 renal),TGI (CAKI-1 renal),GI50 (MOLT-4 leukemia),TGI (MOLT-4 leukemia),GI50 (NCI-H522 lung) [µM]
C=CC(=O)NCc1cccc(Nc2ncc(Br)c(NCCCNC(=O)C3CCC3)n2)c1,2.33 µM and 2.14 µM,8.47 µM and 5.75 µM,2.17 µM and 2.93 µM,5.57 µM and 7.08 µM,1.75 µM and 0.603 µM,12.5 µM and 14.3 µM,12.2 µM and 5.52 µM,0.661 µM and 1.15 µM,12.5 µM and 11.7 µM,2.44 µM and 2.26 µM,9.94 µM and 9.29 µM,0.279 µM and 0.262 µM,1.45 µM and 1.48 µM,1.73 µM and 2.28 µM,12.5 µM and > 25 µM,
CN(C)CCNC(=O)C(C)(C)Oc1ccc(C(=O)c2ccc(Cl)cc2)cc1Cl,,17.2 µM,,32.6 µM,,20 µM,28.2 µM,,18.3 µM,2.63 µM,5.14 µM and 3.58 µM,,26.2 µM,3.26 µM,> 59.8 µM,
CCCCCCCCN(CCCCCCCC)CCCCCCNc1cc(OC)cc2cccnc12,3.59 µM,12.8 µM,5.8 µM,19.1 µM,2.37 µM,6.49 µM,4.78 µM,2.75 µM,10.1 µM,13.6 µM,27.1 µM,12.1 µM,32.5 µM,16.3 µM,42.9 µM,1.9
CC1(C)CCC2=C(O1)c1ccccc1C(=O)C2=O,0.191 µM,,2.05 µM,4.13 µM and 3.07 µM,0.511 µM,2.01 µM and 0.738 µM,4.79 µM and 1.52 µM,1.86 µM,3.93 µM and 1.09 µM,1.88 µM and 0.406 µM,3.39 µM and 1.44 µM,1.74 µM,3.13 µM and 2.47 µM,2.67 µM,7.92 µM,1.89
O=C1Nc2c(C(F)(F)F)cccc2[C@@]1(c1ccc(O)cc1)c1ccc(OC(F)(F)F)cc1,7.92 µM,21.9 µM,0.0194 µM,0.0515 µM,< 0.0172 µM,,< 0.0194 µM,14.1 µM,28.6 µM,13.3 µM,27.7 µM,0.0364 µM,0.971 µM,6.51 µM,25.4 µM,< 0.01
Cc1ccc(-c2cc3c(SCC(=O)Nc4cc(C(F)(F)F)ccc4Cl)nccn3n2)cc1,> 100 µM,> 100 µM,> 100 µM,> 100 µM,5.01 µM,> 100 µM,,> 100 µM,> 100 µM,> 100 µM,> 100 µM,> 100 µM,> 100 µM,> 100 µM,> 100 µM,
CN(Cc1cc(Br)cc(Br)c1O)Cc1cc(Br)cc(Br)c1O,3.79 µM,22.6 µM,2.87 µM,11.8 µM,0.812 µM,12.3 µM,7.14 µM,2.33 µM,16.9 µM,10.9 µM,24.6 µM,0.612 µM,12.5 µM,3.31 µM,36.3 µM,1.73
COc1cc(-c2nc3ccccc3s2)ccc1NC(=O)COc1ccc(Cl)cc1,8.16 µM,> 100 µM,3.52 µM,15.3 µM,4.41 µM,> 100 µM,12.1 µM,53.7 µM,> 100 µM,6.33 µM,71.3 µM,6.95 µM,> 100 µM,> 100 µM,> 100 µM,2.71
C[C@]12CC[C@H](O)C[C@H]1CC[C@@H]1[C@@H]2CC[C@]2(C)[C@@H](C3=CC(=O)OC3)[C@@H](O)C[C@]12O,,10.3 µM,,5.02 µM,,4.37 µM,2.67 µM,,14.6 µM,,25.6 µM,,3.15 µM,,1.95 µM,
COC1CCN(C(=O)c2cc(Cc3n[nH]c(=O)c4ccccc34)ccc2F)CC1,> 100 µM,> 100 µM,> 47.1 µM,> 100 µM,> 100 µM,> 100 µM,> 100 µM,> 100 µM,> 100 µM,> 100 µM,> 100 µM,32.3 µM,> 100 µM,39.3 µM,> 100 µM,33.5
Cc1ccc(C(SCC(N)C(=O)O)(c2ccc(C)cc2)c2ccc(C)cc2)cc1 (stereo not given),0.337 µM,1.16 µM,2.72 µM,20.5 µM,0.829 µM,13 µM,16.7 µM,1.64 µM,15.8 µM,7.47 µM,22.7 µM,2.74 µM,12.5 µM,3.81 µM,20.2 µM,1.01
O=C1c2ccccc2S(=O)(=O)N1CSC(=S)N1CCCCC1,> 100 µM,> 100 µM,> 100 µM,> 100 µM,> 100 µM,> 100 µM,> 100 µM,> 100 µM,> 100 µM,> 100 µM,> 100 µM,> 100 µM,> 100 µM,,,2.05
CCOC(=O)n1cc(C2=C(c3cn(C)c4ccccc34)COC2=O)c2ccccc21,,,0.5 µM,> 86.1 µM,0.0515 µM,16.8 µM,1.02 µM,0.0724 µM,> 100 µM,1.03 µM,> 100 µM,0.0492 µM,18.5 µM,0.38 µM,> 48.4 µM,0.0278
CN(C)c1ccc(N=C2C=CC(=[N+](C)C)C=C2)cc1,6.34 µM,29.2 µM,3.05 µM,13 µM,4.04 µM,17.8 µM,4.95 µM,6.6 µM,26.2 µM,14.2 µM,> 100 µM,12.1 µM,41.8 µM,,,1.79
O=C1NC(=O)C(=C/C=C/c2ccccc2)C(=O)N1,,,3.65 µM,16.2 µM,1.71 µM,3.28 µM,7.15 µM,1.79 µM,4.22 µM,1.91 µM,3.59 µM,,,4.12 µM,25.1 µM,2.36
CC1COc2c(N3CCN(C)CC3)c(F)cc3c(=O)c(C(=O)O)cn1c23 (stereo not given),> 100 µM,> 100 µM,> 100 µM,> 100 µM,> 100 µM,> 100 µM,> 100 µM,> 100 µM,> 100 µM,> 100 µM,> 100 µM,> 100 µM,> 100 µM,,,> 100
